Data taken from patent US11578110B2, “Compounds for inducing tissue formation and uses thereof” (HISTIDE AG, priority 2015, dated 2023).

What follows are sequences tested on hMSCs (assay: STRO-1 stemness marker expression in hMSCs (immunostaining, ImageJ quantification)). Conditions: SEQ ID NO: 1 to 49 tested in combination with a bioactive carrier (titanium, ceramics, PEEK, hydrogel, etc.).
Type: cell-based, Human
Procedure: The cells were first fixed for 20 min with 4% paraformaldehyde/PBS at 4° C. After fixation, the cells were permeabilized in PBS containing 1% Triton X-100 for 15 min. Runx2, Osterix, Stro-1, Vinculin, Phalloidin, Osteopontin, Sox2, Sox9 antibodies were visualized by treating the cells with 1% (v/v) specific monoclonal antibodies for 1 hour at 37° C. Then the samples were incubated with Alexa fluor® 568 or 647 (F(ab′)2 fragment of IgG(H+L)) during 30 min at room temperature. The cell nuclei were counterstained in 20 ng/mL DAPI for 10 min at room temperature.
For this type of quantification the freeware image analysis ImageJ® software was used. The raw image was first converted to an 8-bit file, and then the unsharp mask feature was used (settings 1:0.2) to remove the image background (rolling ball radius 10). After smoothing, the resulting image, which appears similar to the original photomicrograph but with minimal background, was then converted to a binary image by setting a threshold. Threshold values were determined empirically by selecting a setting, which gave the most accurate binary image for a subset of randomly selected photomicrographs. The cell area was determined by manual delineation on raw fluorescent images. Total contact area and mean contact area per cell were calculated by “analyse particles” in ImageJ®. A minimum of 30 cells per condition were analyzed. Stro-1, CD-34+, and CD-105 expressions were determined using this procedure.
hMSCs were cultured on conventional cell culture plastic plates with or without the presence in the cell culture media of different GFR-binding compounds as defined hereins (SEQ ID NO: 50 to 104) in solution. […] This was probed by Stro-1 immunostaining after cell fixation as described in the Methods section. The quantification of Stro-1 positive contact numbers and areas was performed as described in the Methods section. A minimum of 30 cells per condition were analyzed.
RMSD values are always calculated for a GFR-binding peptide sequence exempt from any bioactive-carrier-affinity-containing group as defined herein (e.g. cysteine, WWFWG, GTPGP, etc. . . . ). When needed i.e. when attachment to a bioactive carrier is contemplated, the bioactive-carrier-affinity-containing group is then present in the GFR-binding compound when it is biologically tested. Using the method detailed in the description, the RMSD of 57 previously reported peptide sequences have been determined (Table 6) and correlated with the expression of STRO-1 after grafted on a PET surface via a procedure as already described above. […] One should note that it is commonly admitted that the expression of STRO-1 in a cell is indicative of a cell that is in a substantially non-differentiated state and the decrease of its expression of at least about 20% is indicative of a cell that has started a processes of differentiation but which may not result in the differentiation of the cell. A decrease of more than 50% would be indicative of the presence of a significant shift towards a differentiated state. A decrease of more than 70% would be indicative of the presence of a very important shift towards a differentiated state. A sustained decrease (e.g. for at least 96 h) of more than 50% or 70% would be indicative of the presence of an even more important shift towards a differentiated state.
Likewise, using the method detailed in the description, the RMSD of 87 GFR-binding peptide sequence representatives of the invention have been determined (Table 7) and correlated with the expression of STRO-1 after grafted on a PET surface via a procedure as already described above. SEQ ID NO: 1 to 49 were tested in combination with a bioactive carrier as defined above in the Examples Section (i.e. titanium, ceramics, PEEK, hydrogel, etc. . . . ), whereas SEQ ID NO: 1143 to 1180 were tested in solution.

Row | Sequence | STRO-1 expression [%]
1 | GSAGPSSVPEKMSSLSILFF [SEQ ID NO: 42] | 26
2 | AVPKASSAPTKLEPLPIVYY [SEQ ID NO: 36] | 21
3 | KIPKASSVSQELEPLTILYY [SEQ ID NO: 37] | 17
4 | GTPGPPTSVPTKLSPISVLYK (GFR-binding peptide) [SEQ ID NO: 29] | 27
5 | AAPASSSVPTRLSAISMLYL [SEQ ID NO: 2] | 18
6 | RNVQSRPTQVQLSAISMLYL [SEQ ID NO: 14] | 16
7 | GTPGPVPTEESAISMLYL (GFR-binding peptide) [SEQ ID NO: 28] | 22
8 | NDEGLESVPTGQNAISVLYF [SEQ ID NO: 17] | 31
9 | STPPTSSVPTRLSAISMLYL [SEQ ID NO: 3] | 19
10 | GSAGPSSVPTKMSPISVLYK [SEQ ID NO: 8] | 31
11 | GIPEPSSVPEKMSATSVLYY [SEQ ID NO: 7] | 22
12 | KVGKASSVSQKLEPLTILYY [SEQ ID NO: 10] | 32
13 | VPAGQSPISILYI (CVPAGQSPISILYI; GFR-binding peptide) [SEQ ID NO: 46] | 20
14 | VPAEESPISILYI (CVPAEESPISILYI; GFR-binding peptide) [SEQ ID NO: 48] | 21

Same assay, conditions: SEQ ID NO: 1143 to 1180 tested in solution

Row | Sequence | STRO-1 expression [%]
15 | STPPTSSVPTELSPISTLYK (GFR-binding peptide) [SEQ ID NO: 1147] | 21
16 | STPPTSSAPVGQSPISMLYI (GFR-binding peptide) [SEQ ID NO: 1162] | 19
17 | AASKASSSRVELRSVKIAKV (GFR-binding peptide) [SEQ ID NO: 1152] | 33
18 | KIPKASSTPTRLSPISMLFI (GFR-binding peptide) [SEQ ID NO: 1163] | 28
19 | AASKASSVPQEEEPLPMVYY (GFR-binding peptide) [SEQ ID NO: 1149] | 23
20 | KIPKASSVPTGGSNITVQIM (GFR-binding peptide) [SEQ ID NO: 1151] | 32
21 | AASKASSTPTDLNAISTLYF (GFR-binding peptide) [SEQ ID NO: 1158] | 20
22 | GIPEPSSAPVDLKPLSTLYV (GFR-binding peptide) [SEQ ID NO: 1148] | 11
23 | GIPEPSSAPVEEEPLTTLYY (GFR-binding peptide) [SEQ ID NO: 1174] | 21
24 | GIPEPSSAPVGQEPLPMVYY (GFR-binding peptide) [SEQ ID NO: 1172] | 28
25 | GIPEPSSVSQELSATSMLYY (GFR-binding peptide) [SEQ ID NO: 1160] | 22

Same assay, conditions: grafted on a PET surface

Row | Sequence | STRO-1 expression [%]
26 | ENVNLKKYRNMIVKSCGCH (Previously reported sequence) [SEQ ID NO: 1090, reference compound] | 97
27 | APTKLNAISVLYFDDSSNVILKKYRNMIVKS (Previously reported sequence) [SEQ ID NO: 1126, reference compound] | 84
28 | MQCRELVTQVTEEPISQTEDGEEQESTTTPRLKGQKKE (Previously reported sequence) [SEQ ID NO: 1104, reference compound] | 85
29 | CVTKPLSSLLFPNWNTTTTPTPP (Previously reported sequence) [SEQ ID NO: 1102, reference compound] | 92
30 | FDSRVLKSAISFKENIIF (Previously reported sequence) [SEQ ID NO: 1128, reference compound] | 89
31 | KPCCAPTQLSAISVLYFDDSSNVILKKYRNMVVRACGCR (Previously reported sequence) [SEQ ID NO: 1141, reference compound] | 80
32 | ANINKDRDNVPAATSSLSKAYNP (Previously reported sequence) [SEQ ID NO: 1119, reference compound] | 92
33 | NEVLRFCGIQVPEGDEPLT (Previously reported sequence) [SEQ ID NO: 1094, reference compound] | 98
34 | AETLHTLGLSAPVIESAISDAI (Previously reported sequence) [SEQ ID NO: 1136, reference compound] | 93

What follows are sequences tested on Hair Follicle Stem Cells (assay: Activation of hair follicle stem cells on modified hydrogels (Sox2, BMP-6 release)). Conditions: hydrogel 73 kPa covalently modified.
Type: cell-based, Mouse

Row | Sequence | BMP-6 release in the cell culture medium | Sox2 protein expression
35 | GSAGPSSVPEKMSSLSILFF [SEQ ID NO: 42] | decrease | increase

Each sequence was assayed on Human Hematopoietic Stem Cells (assay: CD-34+ stemness marker expression (immunostaining, ImageJ quantification)). Conditions: peptides grafted on a PET surface; 48 hours.
Type: cell-based

Row | Sequence | CD34+ Expression [%]
36 | RVPSTSSVPTELSAISVLYL (GFR-binding peptide) [SEQ ID NO: 1071] | 29
37 | AASKASSSRVEESATSTLYY (GFR-binding peptide) [SEQ ID NO: 1075] | 28
38 | KIPKASSVPEELEPLPTVYY (GFR-binding peptide) [SEQ ID NO: 1081] | 33
39 | KIPKASSTPTGQSNITMQIM (GFR-binding peptide) [SEQ ID NO: 1082] | 18
40 | RVPSTSSAPVEESPISTLYI (GFR-binding peptide) [SEQ ID NO: 1076] | 27
41 | RVPSTSSVPTDLSSLSILFF (GFR-binding peptide) [SEQ ID NO: 1072] | 26
42 | KIPKASSTPTRLRSVKMAKV (GFR-binding peptide) [SEQ ID NO: 1083] | 17
43 | RVPSTSSVPQQLNAISTLYF (GFR-binding peptide) [SEQ ID NO: 1074] | 32
44 | RVPSTSSTPTKMKPLSILYV (GFR-binding peptide) [SEQ ID NO: 1080] | 31
45 | AASKASSAPTKMSPINILYF (GFR-binding peptide) [SEQ ID NO: 1079] | 30
46 | RVPSTSSTQVRLSPISMLFI (GFR-binding peptide) [SEQ ID NO: 1077] | 24
47 | AASKASSVPTKMEPISTLYL (GFR-binding peptide) [SEQ ID NO: 1078] | 30
48 | KIPKASSVPTKMRPVQMRKI (GFR-binding peptide) [SEQ ID NO: 1084] | 18
49 | AASKASSVPQQLSSLSTLFF (GFR-binding peptide) [SEQ ID NO: 1073] | 29
50 | AASKASSVPAKMRPVQTRKI (GFR-binding peptide) [SEQ ID NO: 1085] | 19

These sequences were tested on hMSCs (assay: Chondrocyte differentiation of hMSCs on modified hydrogels (Sox9, Aggrecan)). Conditions: 96 hours, hydrogel 14 kPa covalently modified.
Type: cell-based, Human
Procedure: Total RNA was extracted by using the RNeasy total RNA kit (Qiagen®) according to the manufacturer's instructions. Purified total RNA was used as a template in order to make cDNA by a reverse transcription reaction (Gibco Brl®) with random primers (Invitrogen®). The cDNA was then used as a template for a real-time PCR amplification in the presence of SYBR green reagents (Bio-Rad®) by using a thermocycler (iCycler, Biorad®). Data were analyzed with the iCycler IQ™® software and compared by the ΔΔCt method. Briefly, the mean Ct value of the target gene was normalized to its averaged Ct values of the housekeeping gene (HPRT) to give a ΔCt value, which was then normalized to a control sample to obtain a ΔΔCt value.
Total RNA was extracted by using the RNeasy Mini Kit (Qiagen) and […] RNA was used for cDNA synthesis with AMV kit (Invitrogen®) according to the manufacturer' instructions. Semi-quantitative reverse transcriptase-polymerase chain reaction (RT-PCR) was performed with Taq DNA Polymerase (Invitrogen®) in a thermocycler (Bio-Rad®). The cDNA input was normalized to […] (HPRT). The PCR products were analyzed on 2% agarose gels. For the Aggrecan gene, the PCR bands were densitometrically quantified by using the BioCapt software (Vilber). Values were normalized to HPRT, and results were reported as relative gene expression.
For that a semi-quantitative RT-PCR was performed as described in the Methods section for the Aggrecan gene and a Quantitative Real Time PCR for Sox9.

Row | Sequence | expression of the Sox9 protein
51 | AVPKASSAPTKLEPLPIVYY [SEQ ID NO: 36] | observed
52 | KIPKASSVSQELEPLTILYY [SEQ ID NO: 37] | observed

Same assay, conditions: 96 hours, hydrogel 14 kPa covalently modified, semi-quantitative RT-PCR

Row | Sequence | Aggrecan gene expression
53 | AVPKASSAPTKLEPLPIVYY [SEQ ID NO: 36] | increased expression
54 | KIPKASSVSQELEPLTILYY [SEQ ID NO: 37] | increased expression
